The values below come from PMC4440792 (ChemMedChem, 2014).

Ends that are not written are not given here.

The subject of this data set is human red blood cells. The experiment in a line: Hemolytic assay. The data set is classed as cell-based. The settings on record: human RBCs in PBS, 37°C, 1 h; representative of 4 independent determinations.
`CC(C)C[C@H](NC(=O)[C@H](CCCCN)NC(=O)[C@H](C)NC(=O)[C@H](CC(C)C)NC(=O)[C@H](CCCCN)NC(=O)[C@H](CCCCN)NC(=O)[C@H](C)NC(=O)[C@H](CC(C)C)NC(=O)[C@H](CCCCN)NC(=O)[C@H](C)NC(=O)[C@H](CC(C)C)NC(=O)[C@@H](N)CCCCN)C(=O)N[C@@H](C)C(=O)N[C@@H](CCCCN)C(N)=O` [PAP]: the “HD10 (peptide concentration that results in lysis of 10% red blood cells)” value is reported as 64 μm.

Take GGHGLLKRIKTLL-NH2 [GGH–anoplin]: the “HD10 (peptide concentration that results in lysis of 10% red blood cells)” value came out at 16 μm.

Regarding GLLKRIKTLL-NH2 [Anoplin], the “HD10 (peptide concentration that results in lysis of 10% red blood cells)” value was over 64 μm. On to RAGLQFPVGRVHRLLRK-NH2 [sh-Buforin], for which the “HD10 (peptide concentration that results in lysis of 10% red blood cells)” value was 64 μm.
